A short description of series [1]: Extrapyramidal activity: catalepsy inducing activity test. Also noted: species or system mice (dd strain male). The following applies: mouse, in vivo. Here is the method: (§1) (2) Extrapyramidal activity
(§2) This activity was examined through the catalepsy inducing activity test as described in M. Fujiwara et al.: Folia Formacol., Japon: 85, 259-274 (1985). A designated amount of the test compound was orally administered to dd strain male mice (bodyweight, 22 to 27 g), and 1 and 4 hours after the administration, catalepsy induction was checked according to the Wirth et al method. Thus, each of the animals was forced to hang the forepows onto a metal pole of 2.5 mm in diameter horizontally situated at a height of 5 cm to maintain a strained state. The test was made with three replications, and the presence of at least one case where the animal was kept in the strained state over a period of 30 seconds was deemed to have caused catalepsy.

The test system of series [2] is climbing behavior induced by apomorphine. The series is described as follows: Neuroleptic activity: anti-climbing behavior test (suppression of climbing behavior induced by apomorphine). Type of series: in vivo, mice (dd strain male). The following applies: for ED50: Mus musculus, read-out: ED50 (50% effective dose), anti-climbing.
In the next series the test system is catalepsy. The series is described as follows: Extrapyramidal activity: catalepsy inducing activity test. Also on record: species or system mice (dd strain male). The note with it: mouse, in vivo. Here is the method: as §1, §2
Where [3] appears, read: 50 min, Oral administration, apomorphine 1.0 mg/kg s.c. after 50 minutes, mice.
Setting [4] is: sc, Subcutaneous administration, apomorphine 1.0 mg/kg s.c., mice.

Structures are written as SMILES. Where two headings read alike, the source gives them in different places. Some results are limits rather than exact numbers.

What is called ED50 is the dose that gives a 50% effect, or the effect in half of the subjects. Consider `O=C1[C@@H]2[C@@H]3CC[C@@H](C3)[C@@H]2C(=O)N1CCCCN1CCN(c2nsc3ccccc23)CC1` [Compound No. 5, N--[4-{4-(1,2-Benzisothiazol-3-yl)-1-piperazinyl}butyl]bicyclo[2.2.1]heptane-2,3-di-endo-carboximide], for which the TD50 in series [1] (po) is 112 mg/kg. The ED50 in series [2] (setting [3]) worked out at 2.6 mg/kg; in series [2] (setting [4]), 0.13 mg/kg.

Regarding `O=C(CCCN1CCC(O)(c2ccc(Cl)cc2)CC1)c1ccc(F)cc1` [Haloperidol, 4-[4-(4-chlorophenyl)-4-hydroxy-1-piperidinyl]-1-(4-fluorophenyl)-1-butanone], in series [1] (oral administration, checked 1 and 4 hours after administration, mice, read-out: ED50, catalepsy induction), the TD50 was below 5 mg/kg. Moreover, the “extrapyramidal activity (catalepsy inducing activity), in words” value in the series on catalepsy is “considerably high level of extra-pyramidal activity”. Further, in series [2] (sc), the ED50 was determined as 0.21 mg/kg. Besides, the “neuroleptic activity (anti-climbing activity), in words” value in series [2] (route not stated) is reported as “significant neuroleptic activity”.

With `O=C1[C@@H]2[C@H]3CC[C@H](C3)[C@@H]2C(=O)N1CCCCN1CCN(c2nsc3ccccc23)CC1` [Compound No. 1, N-[4-{4-(1,2-Benzisothiazol-3-yl)-1-piperazinyl}butyl]bicyclo[2.2.1]heptane-2,3-di-exo-carboximide], the TD50 in series [1] (po) came out at 68.1 mg/kg. The ED50 in series [2] (setting [3]) came to 2 mg/kg; in series [2] (setting [4]) it was 0.15 mg/kg.

Turning to `O=C1CC2(CCCC2)CC(=O)N1CCCCN1CCN(c2nsc3ccccc23)CC1` [Tiaspiron, 8-[4-(3-benzisothiazolyl)-1-piperazinylbutyl]-8-azaspiro[4,5]decane-7,9-dione], the ED50 in series [2] (setting [3]) was above 10 mg/kg; in series [2] (setting [4]) it was 0.23 mg/kg.

The values above are taken from US4745117A, “Imide derivatives and compositions for use as antipsychotic agents” (Sumitomo Pharmaceuticals Company, Limited, priority 1985, dated 1988).
